# Experimental data as given in patent US11236059B2, “Targeted cytotoxic ratjadone derivatives and conjugates thereof” (HELMHOLTZ-ZENTRUM FUER INFEKTIONSFORSCHUNG GMBH, priority 2017, dated 2022).
# pIC50: −log10 of the molar value. Where two headings read alike, the source gives them in different places.
# How the values were obtained:
# Format in all cases: cell-based
# [1] = system: KB 3.1 (DSMZ ACC 158) cells; test: Cell proliferation assay under folate free conditions; conditions: RPMI-medium without folic acid + 10% dialyzed fetal calf serum; MTT assay after 1, 2 and 5 days (day of the value not given); read-out: IC50 [nM] KB 3.1 (Folate-Ratjadone Conjugates)
# Procedure: KB 3.1 (DSMZ ACC 158) cells were cultivated at 37° C. and 10% C002 in RMPI-medium without folic acid (Gibco) with 10% fetal calf serum (Gibco). 120 μL of suspended cells (100.000/mL) were seeded in wells of 96-well plates and after 24 h at 37° C. and 10% CO2 the medium was removed, the cells were washed with PBS and RPMI-medium without folic acid (Gibco)+10% dialyzed fetal calf serum (Sigma) were added to the cells, before after additional 24 h at 37° C. and 10% C002 60 μL of serial dilutions of the test compound were given to cells. After 1, 2 and 5 days of incubation growth inhibition (IC50) was determined using an MTT assay.^[64]
# [2] = system: A549 (DSMZ ACC 107) cells; test: cells; conditions: growth inhibition, 5 days of incubation, MTT assay; read-out: IC50 [nM] A-549 (Gonadoliberin-Ratjadone Conjugates)
# Procedure: (§1) 60 μL of serial dilutions of the test compound were given to 120 μL of suspended cells (50.000/mL) in wells of 96-well plates. After 5 days of incubation growth inhibition (IC50) was determined using an MTT assay.^[64]
# [3] = biological target: T1, CRM1 (Homo sapiens, UniProt O14980); test: Monitoring export inhibitory activity (translocation biosensor, HeLaRevBio cells); conditions: for IC50: HeLa cells stably expressing translocation biosensor, 1h of incubation, read-out: IC50 [nM] CRM1 (nuclear export inhibition)
# T1 construct: HeLa cells stably expressing a fluorescent translocation biosensor (HeLaRevBio); endogenous in cells; host or cells: HeLa (HeLaRevBio in A7; HeLa in A8)
# T1 sequence (O14980 whole entry): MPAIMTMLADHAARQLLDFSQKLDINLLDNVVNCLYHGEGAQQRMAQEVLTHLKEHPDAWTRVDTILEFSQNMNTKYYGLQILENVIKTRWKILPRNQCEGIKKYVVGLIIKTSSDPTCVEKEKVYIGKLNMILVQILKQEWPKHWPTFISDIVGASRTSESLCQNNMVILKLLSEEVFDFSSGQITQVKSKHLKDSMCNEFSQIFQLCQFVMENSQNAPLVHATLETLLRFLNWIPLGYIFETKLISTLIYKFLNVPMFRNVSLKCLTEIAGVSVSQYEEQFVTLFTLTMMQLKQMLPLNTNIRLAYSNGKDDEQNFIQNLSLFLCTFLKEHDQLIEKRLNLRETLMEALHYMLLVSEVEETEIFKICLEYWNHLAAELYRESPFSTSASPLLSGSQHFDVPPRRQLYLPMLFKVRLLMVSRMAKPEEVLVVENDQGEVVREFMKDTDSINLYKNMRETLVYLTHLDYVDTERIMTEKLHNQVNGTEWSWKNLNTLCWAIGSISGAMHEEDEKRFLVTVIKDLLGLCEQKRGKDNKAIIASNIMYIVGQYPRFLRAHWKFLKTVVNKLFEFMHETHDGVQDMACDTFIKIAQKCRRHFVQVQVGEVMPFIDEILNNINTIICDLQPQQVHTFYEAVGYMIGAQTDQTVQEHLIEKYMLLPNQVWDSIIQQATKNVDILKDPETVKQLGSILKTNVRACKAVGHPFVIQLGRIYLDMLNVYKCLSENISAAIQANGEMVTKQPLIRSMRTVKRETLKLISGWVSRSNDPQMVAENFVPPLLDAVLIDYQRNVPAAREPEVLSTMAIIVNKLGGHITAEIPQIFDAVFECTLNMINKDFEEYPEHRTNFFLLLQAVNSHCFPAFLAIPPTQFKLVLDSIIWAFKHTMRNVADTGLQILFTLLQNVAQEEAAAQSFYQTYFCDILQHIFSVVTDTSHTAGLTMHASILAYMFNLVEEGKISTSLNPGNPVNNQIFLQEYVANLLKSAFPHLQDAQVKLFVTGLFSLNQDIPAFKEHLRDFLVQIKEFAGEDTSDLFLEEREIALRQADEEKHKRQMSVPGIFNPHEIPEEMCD
# Procedure: Export inhibitory ability of compounds was evaluated with the translocation biosensor system. This cellular assay depends on a recombinantly expressed fusion protein consisting of a nuclear localization signal (SV40-NLS), glutathione S-transferase (GST), green fluorescent protein (GFP) and a nuclear export signal (HIV1-RevNES). Due to the two transport signals (NLS/NES), the biosensor is permanently shuttling between nucleus and cytoplasm but resides prominently in the cytoplasm due to a comparatively stronger NES. Export inhibiting compound induce a nuclear accumulation of the GFP-signal^[65,66] Cell lines were maintained as recommended by the American Type Culture Collection in DMEM containing 5% glutamine (Thermo Fisher Scientific, Waltham, USA) supplemented with 10% FBS (Thermo Fisher Scientific, Waltham, USA). For quantifying the nuclear export inhibitory effect, HeLa cells stably expressing a fluorescent translocation biosensor (HeLaRevBio)^[67] were seeded into black 96 well μclear plates (Greiner, Germany). They next day compounds were added covering an appropriate concentration range. After 1h of incubation, cells were fixed in 4% PFA for 10 min and permeabilized with 0.1% Triton X 100 in PBS for 5 min. After washing with PBS nuclei were labeled with Hoechst H33342 (30 min 10 μg/ml). The intracellular distribution of the biosensor-dependent GFP signal was quantitatively evaluated with the high content imaging system ImageXpress MicroXLS (Molecular Devices, Sunnyvale, USA). By using the translocation enhanced application module (Molecular Devices, Sunnyvale, USA) the GFP-intensity was quantified in the cytoplasm and nuclear region. As final readout the difference of Mean Inner and Mean Outer Intensity was calculated. IC50s of nuclear export inhibition were calculated using Sigma Plot with four parameter logistics curve regression (Systat Software GmbH, Erkrath, Germany). […] The following day compounds were added at 125 nM final concentration.
# [4] = system: MCF-7 (DSMZ ACC 115) cells; test: cells
# Procedure: as §1
# [5] = system: SKOV-3 (DSMZ ATCC HTB 77) cells; test: cells
# Procedure: as §1
Structure (SMILES),IC50 [1] [nM],IC50 [2] [nM],other results
C/C=C/[C@@H]1O[C@H]([C@@H](/C=C/C=C(\C)C[C@@H](C)/C=C(C)\C=C\[C@H]2CC=CC(=O)O2)NC(=O)OCc2ccc(NC(=O)[C@H](CCCNC(N)=O)NC(=O)[C@@H](NC(=O)OC[C@@H]3[C@@H]4CCc5nnn(-c6ccc(C(=O)NCCCC[C@H](NC(=O)CC[C@H](NC(=O)CC[C@H](NC(=O)c7ccc(NCc8cnc9nc(N)nc(O)c9n8)cc7)C(=O)O)C(=O)O)C(=O)O)cc6)c5CC[C@@H]43)C(C)C)cc2)C[C@@H](O)[C@@H]1C [FA-6-Val-Cit-PABA-16R-Aminoratjadone],223,–,–
C/C=C/[C@@H]1O[C@H]([C@@H](/C=C/C=C(\C)C[C@@H](C)/C=C(C)\C=C\[C@H]2CC=CC(=O)O2)NC(=O)OCc2ccc(NC(=O)[C@H](CCCNC(N)=O)NC(=O)[C@@H](NC(=O)OC[C@@H]3[C@@H]4CCc5nnn(-c6ccc(C(=O)NCCCC[C@H](NC(=O)CC[C@H](NC(=O)c7ccc(NCc8cnc9nc(N)nc(O)c9n8)cc7)C(=O)O)C(=O)N[C@H](CCCCN)C(=O)O)cc6)c5CC[C@@H]43)C(C)C)cc2)C[C@@H](O)[C@@H]1C [FA-8-Val-Cit-PABA-16R-Aminoratjadone],39.9,–,–
C/C=C/[C@@H]1O[C@H]([C@@H](/C=C/C=C(\C)C[C@@H](C)/C=C(C)\C=C\[C@H]2CC=CC(=O)O2)NC(=O)OCc2ccc(NC(=O)[C@H](CCCNC(N)=O)NC(=O)[C@@H](NC(=O)OC[C@@H]3[C@@H]4CCc5nnn(CCC[C@H](NC(=O)CC[C@H](NC(=O)c6ccc(NCc7cnc8nc(N)nc(O)c8n7)cc6)C(=O)O)C(=O)N[C@H](CCCCN)C(=O)O)c5CC[C@@H]43)C(C)C)cc2)C[C@@H](O)[C@@H]1C [FA-9-Val-Cit-PABA-16R-Aminoratjadone],50.9,–,–
"C/C=C/[C@@H]1O[C@H]([C@@H](/C=C/C=C(\C)C[C@@H](C)/C=C(C)\C=C\[C@H]2CC=CC(=O)O2)NC(=O)OCCc2cn(-c3ccc(C(=O)NCCCC[C@H](NC(=O)CC[C@H](NC(=O)CC[C@H](NC(=O)c4ccc(NCc5cnc6nc(N)nc(O)c6n5)cc4)C(=O)O)C(=O)O)C(=O)O)cc3)nn2)C[C@@H](O)[C@@H]1C [FA-6-16R-Aminoratjadone, (3S,8S,13S)-1-(4-(((2-amino-4-hydroxypteridin-6-yl)methyl)amino)phenyl)-19-(4-(4-(2-((((1R,2E,4E,7R,8Z,10E)-1-((2S,4R,5S,6S)-4-hydroxy-5-methyl-6-((E)-prop-1-en-1-yl)tetrahydro-2H-pyran-2-yl)-5,7,9-trimethyl-1-((R)-6-oxo-3,6-dihydro-2H-pyran-2-yl)undeca-2,4,8,10-tetraen-1-yl)carbamoyl)oxy)ethyl)-1H-1,2,3-triazol-1-yl)phenyl)-1,6,11,19-tetraoxo-2,7,12,18-tetraazanonadecane-3,8,13-tricarboxylic acid]",150,–,–
C/C=C/[C@@H]1O[C@H]([C@@H](/C=C/C=C(\C)C[C@@H](C)/C=C(C)\C=C\[C@H]2CC=CC(=O)O2)NC(=O)OCc2ccc(NC(=O)[C@H](CCCNC(N)=O)NC(=O)[C@@H](NC(=O)OC[C@@H]3[C@@H]4CCc5nnn(CCC[C@H](NC(=O)CC[C@H](NC(=O)CC[C@H](NC(=O)c6ccc(NCc7cnc8nc(N)nc(O)c8n7)cc6)C(=O)O)C(=O)O)C(=O)O)c5CC[C@@H]43)C(C)C)cc2)C[C@@H](O)[C@@H]1C [FA-7-Val-Cit-PABA-16R-Aminoratjadone],34.3,–,–
C/C=C/[C@@H]1O[C@H]([C@@H](/C=C/C=C(\C)C[C@@H](C)/C=C(C)\C=C\[C@H]2CC=CC(=O)O2)NC(=O)OCc2ccc(NC(=O)[C@H](CCCNC(N)=O)NC(=O)[C@@H](NC(=O)OC[C@@H]3[C@@H]4CCc5nnn(CCC[C@@H](NC(=O)[C@H](Cc6ccc(O)cc6)NC(=O)[C@H](CO)NC(=O)[C@H](Cc6c[nH]c7ccccc67)NC(=O)[C@H](Cc6c[nH]cn6)NC(=O)[C@@H]6CCC(=O)N6)C(=O)N[C@@H](CC(C)C)C(=O)N[C@@H](CCCNC(=N)N)C(=O)N6CCC[C@H]6C(=O)NNC(N)=O)c5CC[C@@H]43)C(C)C)cc2)C[C@@H](O)[C@@H]1C,–,12.8,–
C/C=C/[C@@H]1O[C@H]([C@@H](/C=C/C=C(\C)C[C@@H](C)/C=C(C)\C=C\[C@H]2CC=CC(=O)O2)NC(=O)OCc2ccc(NC(=O)[C@H](CCCNC(N)=O)NC(=O)[C@@H](NC(=O)OCCc3cn(CCC[C@H](NC(=O)[C@H](Cc4ccc(O)cc4)NC(=O)[C@H](CO)NC(=O)[C@H](Cc4c[nH]c5ccccc45)NC(=O)[C@H](Cc4c[nH]cn4)NC(=O)[C@@H]4CCC(=O)N4)C(=O)N[C@@H](CC(C)C)C(=O)N[C@@H](CCCNC(=N)N)C(=O)N4CCC[C@H]4C(=O)NCC(N)=O)nn3)C(C)C)cc2)C[C@@H](O)[C@@H]1C,–,1200,–
"C/C=C/[C@@H]1O[C@H]([C@@H](N)/C=C/C=C(\C)C[C@@H](C)/C=C(C)\C=C\[C@H]2CC=CC(=O)O2)C[C@@H](O)[C@@H]1C [16S-Amino-Ratjadone 12, (R)-6-((1E,3Z,5R,7E,9E,11 S)-11-amino-11-((2S,4R,5S,6S)-4-hydroxy-5-methyl-6-((E)-prop-1-en-1-yl)tetrahydro-2H-pyran-2-yl)-3,5,7-trimethylun-deca-1,3,7,9-tetraen-1-yl)-5,6-dihydro-2H-pyran-2-one]",–,–,IC50 [3]: 2.8 nM
"C/C=C/[C@@H]1O[C@H]([C@H](O)/C=C/C=C(\C)C[C@@H](C)/C=C(C)\C=C\[C@H]2CC=CC(=O)O2)C[C@@H](O)[C@@H]1C [Ratjadone A 1, (R)-6-((1E,3Z,5R,7E,9E,11R)-11-hydroxy-11-((2S,4R,5S,6S)-4-hydroxy-5-methyl-6-((E)-prop-1-en-1-yl)tetrahydro-2H-pyran-2-yl)-3,5,7-trimethylundeca-1,3,7,9-tetraen-1-yl)-5,6-dihydro-2H-pyran-2-one, reference compound]",–,–,IC50 [3]: 1.2 nM
C/C=C/[C@@H]1O[C@H]([C@@H](/C=C/C=C(\C)C[C@@H](C)/C=C(C)\C=C\[C@H]2CC=CC(=O)O2)NC(=O)OCc2ccc(NC(=O)[C@H](CCCNC(N)=O)NC(=O)[C@@H](NC(=O)OC[C@@H]3[C@@H]4CCc5nnn(CCC[C@@H](NC(=O)[C@H](Cc6ccc(O)cc6)NC(=O)[C@H](CO)NC(=O)[C@H](Cc6c[nH]c7ccccc67)NC(=O)[C@H](Cc6c[nH]cn6)NC(=O)[C@@H]6CCC(=O)N6)C(=O)N[C@@H](CC(C)C)C(=O)N[C@@H](CCCNC(=N)N)C(=O)N6CCC[C@H]6C(=O)NCC(N)=O)c5CC[C@@H]43)C(C)C)cc2)C[C@@H](O)[C@@H]1C,–,23,–
C/C=C/[C@@H]1O[C@H]([C@@H](/C=C/C=C(\C)C[C@@H](C)/C=C(C)\C=C\[C@H]2CC=CC(=O)O2)NC(=O)OCCc2cn(CCC[C@H](NC(=O)[C@H](Cc3ccc(O)cc3)NC(=O)[C@H](CO)NC(=O)[C@H](Cc3c[nH]c4ccccc34)NC(=O)[C@H](Cc3c[nH]cn3)NC(=O)[C@@H]3CCC(=O)N3)C(=O)N[C@@H](CC(C)C)C(=O)N[C@@H](CCCNC(=N)N)C(=O)N3CCC[C@H]3C(=O)NCC(N)=O)nn2)C[C@@H](O)[C@@H]1C [L-Orn-LHRH-16R-Aminoratjadone],–,1600,pIC50 [3]: 5.97
"C/C=C/[C@@H]1O[C@H]([C@H](N)/C=C/C=C(\C)C[C@@H](C)/C=C(C)\C=C\[C@H]2CC=CC(=O)O2)C[C@@H](O)[C@@H]1C [16R-Amino-Ratjadone 11, (R)-6-((1E,3Z,5R,7E,9E,11R)-11-amino-11-((2S,4R,5S,6S)-4-hydroxy-5-methyl-6-((E)-prop-1-en-1-yl)tetrahydro-2H-pyran-2-yl)-3,5,7-trimethylundeca-1,3,7,9-tetra-en-1-yl)-5,6-dihydro-2H-pyran-2-one]",–,–,"IC50 ([4]; Homo sapiens, MCF7, 120 h, read-out: IC50 [nM] MCF-7, growth inhibition, 5 days of incubation, MTT assay): 0.26 nM; IC50 ([4]; read-out: IC50 [nM] MCF-7, growth inhibition, 5 days of incubation, MTT assay): 0.36 nM; IC50 ([5]; Homo sapiens, SK-OV-3, 120 h, read-out: IC50 [nM] SK-OV-3, growth inhibition, 5 days of incubation, MTT assay): 0.61 nM; IC50 ([5]; read-out: IC50 [nM] SK-OV-3, growth inhibition, 5 days of incubation, MTT assay): 0.81 nM; IC50 [3]: 2.7 nM"
